Target: T1, A. pernix ADH (Aeropyrum pernix, UniProt Q9Y9P9)
T1 construct: heat treatment, DEAE Sepharose and Superdex 200
T1 sequence (Q9Y9P9 1-344): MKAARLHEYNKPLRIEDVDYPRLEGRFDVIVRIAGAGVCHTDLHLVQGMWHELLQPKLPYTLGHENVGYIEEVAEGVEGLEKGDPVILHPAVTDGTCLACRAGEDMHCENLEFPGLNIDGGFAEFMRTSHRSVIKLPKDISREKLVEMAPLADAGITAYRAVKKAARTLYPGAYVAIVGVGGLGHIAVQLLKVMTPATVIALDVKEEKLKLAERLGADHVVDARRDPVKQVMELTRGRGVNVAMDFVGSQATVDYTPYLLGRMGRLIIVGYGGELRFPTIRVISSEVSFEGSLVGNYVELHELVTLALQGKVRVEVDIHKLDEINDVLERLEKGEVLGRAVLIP
Assay: NADH formation, initial rate
Format: biochemical
Settings: 70 μM NAD+, 25 °C

CCCC(C)O (centres unmarked) [2-pentanol]
NADH formation, initial rate (aqueous, 50 mM potassium phosphate pH 7.4, 150 mM KCl, 1.2 μM enzyme, substrate activation): substrate activation was also observed when using 2-pentanol as a substrate in water

NC(=O)c1ccc[n+]([C@@H]2O[C@H](COP(=O)(O)OP(=O)(O)OC[C@H]3O[C@@H](n4cnc5c(N)ncnc54)[C@H](O)[C@@H]3O)[C@@H](O)[C@H]2O)c1 [NAD^+]
NADH formation, initial rate (CTAB/2-pentanol/isooctane reversed micelles, W0 16.7, 2-pentanol as co-substrate): A. pernix ADH showed NAD^+ reduction activity in a CTAB/2-pentanol/isooctane reversed micellar system
